Test results as given in patent US11753445B2, “Therapeutic peptides” (COHBAR, INC., priority 2016, dated 2023).
Peptide text beside a SMILES is read from it.

System: 3T3-L1 Adipocytes
Assay: Free fatty acid levels in cultured mouse 3T3-L1 adipocytes, isoproterenol stimulated (Example 2)
Format: cell-based
Details: test peptides 25 μM; isoproterenol 1 nM
Protocol: Mouse 3T3-L1 cells were seeded at a density between 1,000-20,000 cells per well on 96-well, 48-well, or 24-well plates in Pre-adipocyte Medium (Zen-Bio, Durham, N.C.) and grown to confluence at 37° C. in a humidified atmosphere of 5% CO2/95% air. Two days after confluence, cells were placed in Adipocyte Differentiation Medium (Zen-Bio, Durham, N.C.) and cultured for three additional days at 37° C. in a humidified atmosphere of 5% CO2/95% air. The culture media was then replaced with Adipocyte Maintenance Medium (Zen-Bio) and the cells were maintained for an additional 9-14 days at 37° C. in a humidified atmosphere of 5% CO2/95% air with partial medium replacement every other day. Following 12-17 days of differentiation, test peptides were added at a final concentration of 25 μM and incubated for 18-20 hours in Adipocyte Maintenance Medium at 37° C. in a humidified atmosphere of 5% CO2/95%. After 18-20 hours, the media was exchanged with fresh Adipocyte Maintenance Medium containing test peptides and incubated for 1 h at 37° C. in a humidified atmosphere of 5% CO2/95%. After 1 h media was exchanged with Assay Buffer (Zen-Bio) containing isoproterenol (1 nM) (added to all samples except untreated controls) and the test peptides. Cells were incubated for a further 3 hours at 37° C. in a humidified atmosphere of 5% CO2/95%. Free fatty acid concentrations in the media were determined using a Free Fatty Acid Assay Kit (Zen-Bio) according to the manufacturer's instructions using a plate reader (540 nm).
Absorbance values were corrected for untreated background and expressed relative to isoproterenol treated cells. Treatment with isoproterenol (1 nM) alone was used as the free fatty acid level stimulatory control. The relative standard deviation of the isoproterenol control was <10%. […] Free fatty acid levels for insulin (100 nM) treatment were <5% of the isoproterenol control value.

With `CC[C@H](C)[C@H](NC(=O)[C@H](Cc1ccc(O)cc1)NC(=O)CNC(=O)[C@H](CCSC)NC(=O)[C@@H](C)NC(=O)[C@H](CCC(N)=O)NC(=O)[C@H](Cc1c[nH]c2ccccc12)NC(=O)[C@H](CCCNC(=N)N)NC(=O)[C@@H](N)CCSC)C(=O)N[C@@H](Cc1ccccc1)C(=O)N[C@@H](Cc1ccc(O)cc1)C(=O)N1CCC[C@H]1C(=O)N[C@@H](CCCNC(=N)N)C(=O)N[C@@H](CCCCN)C(=O)N[C@@H](CC(C)C)C(=O)N[C@@H](CCCNC(=N)N)C(=O)O` [compound 140] (HELM PEPTIDE1{M.R.W.Q.[dA].M.G.Y.I.F.Y.P.R.K.L.R}$$$$V2.0) the “Free Fatty Acid Levels in 3T3-L1 Adipocytes Expressed as a Percent of Isoproterenol Control: Percent of Control Value” was 60.8%.

In the case of `CC[C@H](C)[C@H](NC(=O)[C@H](Cc1ccc(O)cc1)NC(=O)CNC(=O)[C@@H](C)NC(=O)[C@H](CCC(=O)O)NC(=O)[C@H](CCC(N)=O)NC(=O)[C@H](Cc1c[nH]c2ccccc12)NC(=O)[C@H](CCCNC(=N)N)NC(=O)[C@@H](N)CCSC)C(=O)N[C@@H](Cc1ccccc1)C(=O)N[C@@H](Cc1ccc(O)cc1)C(=O)N1CCC[C@H]1C(=O)N[C@@H](CCCNC(=N)N)C(=O)N[C@@H](CCCCN)C(=O)N[C@@H](CC(C)C)C(=O)N[C@@H](CCCNC(=N)N)C(=O)O` [compound 141] (HELM PEPTIDE1{M.R.W.Q.E.[dA].G.Y.I.F.Y.P.R.K.L.R}$$$$V2.0), the “Free Fatty Acid Levels in 3T3-L1 Adipocytes Expressed as a Percent of Isoproterenol Control: Percent of Control Value” is reported as 56.9%.

In the case of `CC[C@H](C)[C@H](NC(=O)[C@H](Cc1ccc(O)cc1)NC(=O)[C@@H](C)NC(=O)[C@H](CCSC)NC(=O)[C@H](CCC(=O)O)NC(=O)[C@H](CCC(N)=O)NC(=O)[C@H](Cc1c[nH]c2ccccc12)NC(=O)[C@H](CCCNC(=N)N)NC(=O)[C@@H](N)CCSC)C(=O)N[C@@H](Cc1ccccc1)C(=O)N[C@@H](Cc1ccc(O)cc1)C(=O)N1CCC[C@H]1C(=O)N[C@@H](CCCNC(=N)N)C(=O)N[C@@H](CCCCN)C(=O)N[C@@H](CC(C)C)C(=O)N[C@@H](CCCNC(=N)N)C(=O)O` [compound 142] (HELM PEPTIDE1{M.R.W.Q.E.M.[dA].Y.I.F.Y.P.R.K.L.R}$$$$V2.0), the “Free Fatty Acid Levels in 3T3-L1 Adipocytes Expressed as a Percent of Isoproterenol Control: Percent of Control Value” is reported as 31.9%.

`CC[C@H](C)[C@H](NC(=O)[C@@H](C)NC(=O)CNC(=O)[C@H](CCSC)NC(=O)[C@H](CCC(=O)O)NC(=O)[C@H](CCC(N)=O)NC(=O)[C@H](Cc1c[nH]c2ccccc12)NC(=O)[C@H](CCCNC(=N)N)NC(=O)[C@@H](N)CCSC)C(=O)N[C@@H](Cc1ccccc1)C(=O)N[C@@H](Cc1ccc(O)cc1)C(=O)N1CCC[C@H]1C(=O)N[C@@H](CCCNC(=N)N)C(=O)N[C@@H](CCCCN)C(=O)N[C@@H](CC(C)C)C(=O)N[C@@H](CCCNC(=N)N)C(=O)O` [compound 143] (HELM PEPTIDE1{M.R.W.Q.E.M.G.[dA].I.F.Y.P.R.K.L.R}$$$$V2.0) was tested, and the “Free Fatty Acid Levels in 3T3-L1 Adipocytes Expressed as a Percent of Isoproterenol Control: Percent of Control Value” was 64.5%.

`CSCC[C@H](NC(=O)[C@H](CCC(=O)O)NC(=O)[C@H](CCC(N)=O)NC(=O)[C@H](Cc1c[nH]c2ccccc12)NC(=O)[C@H](CCCNC(=N)N)NC(=O)[C@@H](N)CCSC)C(=O)NCC(=O)N[C@@H](Cc1ccc(O)cc1)C(=O)N[C@H](C)C(=O)N[C@@H](Cc1ccccc1)C(=O)N[C@@H](Cc1ccc(O)cc1)C(=O)N1CCC[C@H]1C(=O)N[C@@H](CCCNC(=N)N)C(=O)N[C@@H](CCCCN)C(=O)N[C@@H](CC(C)C)C(=O)N[C@@H](CCCNC(=N)N)C(=O)O` [compound 144] (HELM PEPTIDE1{M.R.W.Q.E.M.G.Y.[dA].F.Y.P.R.K.L.R}$$$$V2.0) was tested, and the “Free Fatty Acid Levels in 3T3-L1 Adipocytes Expressed as a Percent of Isoproterenol Control: Percent of Control Value” was 57.0%.

With `CC[C@H](C)[C@H](NC(=O)[C@H](Cc1ccc(O)cc1)NC(=O)CNC(=O)[C@H](CCSC)NC(=O)[C@H](CCC(=O)O)NC(=O)[C@H](CCC(N)=O)NC(=O)[C@H](Cc1c[nH]c2ccccc12)NC(=O)[C@H](CCCNC(=N)N)NC(=O)[C@@H](N)CCSC)C(=O)N[C@H](C)C(=O)N[C@@H](Cc1ccc(O)cc1)C(=O)N1CCC[C@H]1C(=O)N[C@@H](CCCNC(=N)N)C(=O)N[C@@H](CCCCN)C(=O)N[C@@H](CC(C)C)C(=O)N[C@@H](CCCNC(=N)N)C(=O)O` [compound 145] (HELM PEPTIDE1{M.R.W.Q.E.M.G.Y.I.[dA].Y.P.R.K.L.R}$$$$V2.0) the “Free Fatty Acid Levels in 3T3-L1 Adipocytes Expressed as a Percent of Isoproterenol Control: Percent of Control Value” was 50.2%.

In the case of `CC[C@H](C)[C@H](NC(=O)[C@H](Cc1ccc(O)cc1)NC(=O)CNC(=O)[C@H](CCSC)NC(=O)[C@H](CCC(=O)O)NC(=O)[C@H](CCC(N)=O)NC(=O)[C@H](Cc1c[nH]c2ccccc12)NC(=O)[C@H](CCCNC(=N)N)NC(=O)[C@@H](N)CCSC)C(=O)N[C@@H](Cc1ccccc1)C(=O)N[C@H](C)C(=O)N1CCC[C@H]1C(=O)N[C@@H](CCCNC(=N)N)C(=O)N[C@@H](CCCCN)C(=O)N[C@@H](CC(C)C)C(=O)N[C@@H](CCCNC(=N)N)C(=O)O` [compound 146] (HELM PEPTIDE1{M.R.W.Q.E.M.G.Y.I.F.[dA].P.R.K.L.R}$$$$V2.0), the “Free Fatty Acid Levels in 3T3-L1 Adipocytes Expressed as a Percent of Isoproterenol Control: Percent of Control Value” is reported as 55.9%.

In the case of `CC[C@H](C)[C@H](NC(=O)[C@H](Cc1ccc(O)cc1)NC(=O)CNC(=O)[C@H](CCSC)NC(=O)[C@H](CCC(=O)O)NC(=O)[C@H](CCC(N)=O)NC(=O)[C@H](Cc1c[nH]c2ccccc12)NC(=O)[C@H](CCCNC(=N)N)NC(=O)[C@@H](N)CCSC)C(=O)N[C@@H](Cc1ccccc1)C(=O)N[C@@H](Cc1ccc(O)cc1)C(=O)N[C@H](C)C(=O)N[C@@H](CCCNC(=N)N)C(=O)N[C@@H](CCCCN)C(=O)N[C@@H](CC(C)C)C(=O)N[C@@H](CCCNC(=N)N)C(=O)O` [compound 147] (HELM PEPTIDE1{M.R.W.Q.E.M.G.Y.I.F.Y.[dA].R.K.L.R}$$$$V2.0), the “Free Fatty Acid Levels in 3T3-L1 Adipocytes Expressed as a Percent of Isoproterenol Control: Percent of Control Value” is reported as 60.9%.

`CC[C@H](C)[C@H](NC(=O)[C@H](Cc1ccc(O)cc1)NC(=O)CNC(=O)[C@H](CCSC)NC(=O)[C@H](CCC(=O)O)NC(=O)[C@H](CCC(N)=O)NC(=O)[C@H](Cc1c[nH]c2ccccc12)NC(=O)[C@H](CCCNC(=N)N)NC(=O)[C@@H](N)CCSC)C(=O)N[C@@H](Cc1ccccc1)C(=O)N[C@@H](Cc1ccc(O)cc1)C(=O)N1CCC[C@H]1C(=O)N[C@H](C)C(=O)N[C@@H](CCCCN)C(=O)N[C@@H](CC(C)C)C(=O)N[C@@H](CCCNC(=N)N)C(=O)O` [compound 148] (HELM PEPTIDE1{M.R.W.Q.E.M.G.Y.I.F.Y.P.[dA].K.L.R}$$$$V2.0) was tested, and the “Free Fatty Acid Levels in 3T3-L1 Adipocytes Expressed as a Percent of Isoproterenol Control: Percent of Control Value” was 25.0%.

For `CC[C@H](C)[C@H](NC(=O)[C@H](Cc1ccc(O)cc1)NC(=O)CNC(=O)[C@H](CCSC)NC(=O)[C@H](CCC(=O)O)NC(=O)[C@H](CCC(N)=O)NC(=O)[C@H](Cc1c[nH]c2ccccc12)NC(=O)[C@H](CCCNC(=N)N)NC(=O)[C@@H](N)CCSC)C(=O)N[C@@H](Cc1ccccc1)C(=O)N[C@@H](Cc1ccc(O)cc1)C(=O)N1CCC[C@H]1C(=O)N[C@@H](CCCNC(=N)N)C(=O)N[C@@H](CCCCN)C(=O)N[C@H](C)C(=O)N[C@@H](CCCNC(=N)N)C(=O)O` [compound 150] (HELM PEPTIDE1{M.R.W.Q.E.M.G.Y.I.F.Y.P.R.K.[dA].R}$$$$V2.0), the “Free Fatty Acid Levels in 3T3-L1 Adipocytes Expressed as a Percent of Isoproterenol Control: Percent of Control Value” was 53.9%.
